Data published in US20110263423A1, “Plant Health Composition” (BASF SE, priority 2008, published 2011).

System: Maize (Pioneer 34-N-45)
Assay: Maize field trial, mixture with epoxiconazol, Colby synergism (Example 6)
Format: in vivo
Conditions: 50 g a.i./ha of each compound
Method: Maize was grown in 2008 in a field trial at the BASF experimental station in Dinuba, 10181 Avenue 416, Calif., U.S.A. The variety Pioneer 34-N-45 was planted at a seeding rate of 35.000 plants/ha. The trial was setup as a randomized bloc design with 5 replications, each. Plot size was 43 m^2.
The maize plants were either untreted, treated with epoxiconazol (A3), with compound Ia, and with a mixture comprising compound Ia and epoxiconazol. Epoxiconazol was applied as the commercial formulation OPUS™ (125 g a.i./L, SC formulation) at a dose rate of 0.4 L/ha (50 g a.i./ha). Compound Ia was used as an EC formulation (62.5 g a.i./L) with a dose rate of 0.8 L per hectar (50 g a.i./ha). Epoxiconazol was applied together with compound Ia (as a mixture) using a co-formulation of both compounds (EC formulation, 62.5 g a.i./L each) with a product rate of 0.8 L/ha. The formulation was applied in a total spray volume of 300 L/ha. Compound Ia was sprayed at growth stage 51/55 (BBCH) with a tractor mounted spray boom with VS11003 spray nozzles at 3 bar spray pressure.
No disease symptoms were visible at the application time and no symptoms were detected at later stages.
At maturity the grain was harvested and the grain yield per plot, as an indicator of plant yield, was determined (kg/plot). Finally, the grain yield per hectare was calculated (dt/ha).
The efficacy was calculated as % increase of the grain yield (dt/ha) by each treatment compared to the untreated control.
The expected efficacies of the combinations of the active compounds were estimated using Colby's formula (Colby, S. R., Calculating synergistic and antagonistic responses of herbicide combinations, Weeds, 15, pp. 20-22, 1967) and compared with the observed efficacies.
E=x+y−x·y/100 Colby's formula: • E expected efficacy, expressed in % of the untreated control, when using the mixture of the active compounds A and B at the concentrations a and b • x efficacy, expressed in % of the untreated control, when using the active ingredient A at the concentration a • y efficacy, expressed in % of the untreated control, when using the active ingredient B at the concentration b

For `Fc1ccc([C@]2(Cn3cncn3)O[C@H]2c2ccccc2Cl)cc1` (racemic) [Epoxiconazol (A3), epoxiconazole, reference compound], the “Observed efficacy (% increase of grain yield vs untreated control)” value was 0.9% and the Grain yield (BBCH 51/55) was 155.8 dt/ha.
